PMC6416395, “B1.12: a novel peptide interacting with the extracellular loop of the EBV oncoprotein LMP1” (Scientific Reports, 2019)
Entries after “also recorded” stand apart in the source; their conditions may differ. Residues, ends and D or L forms follow the SMILES beside them.

Experiments:
HeLa/LMP1 cells = assay: Competitive inhibition of phage B1.12 binding to HeLa/LMP1 cells; format: cell-based; conditions: peptide 100 µM, 37 °C 1 hour, triplicate mean
Procedure: (§1) Binding of the B1.12 peptide to its target B1 and to HeLa/LMP1 cells was evaluated by a competitive binding assay. For competition on B1 as a target, the B1.12 peptide or the unrelated control peptide were incubated at concentrations of 1, 5, 10, 25, 50 and 100 µM with B1 peptide (100 µl of a solution of 1 mg/mL in NaHCO3) at room temperature for 1 hour. Then the B1.12 phage (2 × 10^10 pfu) was added to each well and incubated for 1 hour. After washing, the bound phage was detected by the anti-M13 antibody as described previously. For the competition test on HeLa cells expressing or not the viral oncoprotein LMP1, cells were seeded into 96-well plates (10^4 cells/well), washed twice in PBS, and fixed with 4% paraformaldehyde for 30 minutes at room temperature. Synthetic peptides at concentrations of 50, 75, 100 and 200 µM were incubated with the cells at 37 °C for 1 hour and the experiment was carried out as described above. All experiments were done in triplicate and the mean values of OD were used to calculate the rate of competitive inhibition according to the following formula: inhibition ratio = (OD control − OD phage)/OD control × 100, where OD control and OD phage represent the OD450 nm values of phage binding on cells incubated with PBS and with the peptide, respectively.

C666.1 cells = assay: Cell cycle analysis, C666.1; format: cell-based; conditions: C666.1, 50 µM peptide
Procedure: (§2) Cell cycle analysis of C666.1 and HT29 cells was performed using the FXcycleTm PIi/RNnase staining solution (Invitrogen). Briefly, cells (4 × 10^5) were seeded and grown for 24 hours, and then incubated with serum-free RPMI for another 24 hours (starvation) to decrease cell constitutive signaling. After starvation, cells were incubated or not with 50 µM B1.12 peptide (C666.1 and HT29 cells) or control peptide (C666.1 cells) for 48 hours. Following incubation, cells were washed with PBS, trypsinized and centrifuged at 1200 rpm for 5 minutes. The cell pellet was then washed twice with PBS, and cells were fixed with 5 mL of ethanol 70% for 24 hours at 4 °C. Aliquots of 2 × 10^5 ethanol-fixed cells were then centrifuged for 5 minutes at 450 g, washed with PBS, and then resuspended in Propidium Iodide Reagent and incubated for 30 minutes at room temperature, shielded from light. The data were collected and analyzed by an Attune NxT Flow Cytometer (Thermofisher).

HT29 cells = assay: Cell cycle analysis, HT29; format: cell-based, human; conditions: HT29, 50 µM peptide
Procedure: Three cell lines were used: C666-1 which is a native EBV-infected NPC-derived cell line constitutively expressing LMP1, HeLa cells transfected with native vector (Gpt) or harboring the cDNA encoding LMP1, and HT-29 which is a human colon cancer cell line All cells were maintained in RPMI medium 1640 supplemented with 5% (V/V) FBS (Gibco), 4 µg/mL Gentamycine and 2 mM L-glutamine at 37 °C in a humidified atmosphere of 5% CO2. These cell lines were kindly provided by Pr P. Busson (IGR-France).
as §2, with “Aliquots of 2 × 10^5 ethanol-fixed cells were then centrifuged for 5 minutes at 450 g, washed with PBS, and then resuspended in Propidium Iodide Reagent and incubated for 30 minutes at room temperature, shielded from light.” left out

pAkt = assay: Western blot pAkt in C666.1 cells; format: cell-based; conditions: 100 µM peptide, 24 hours, C666.1, Western blot, n = 4 biological replicates
Procedure: (§3) Cells were cultured at 80% confluency and then incubated with 100 µM B1.12 peptide for 24 hours. Subsequently, cells were washed twice with cold PBS and scrapped in ice-cold RIPA buffer (50 mM Tris pH 7.4, 5 mM EDTA pH 8.0, 150 mM NaCl, 0.1% SDS, 0.5% NaDOC, 0.5% NP 40) supplemented with 5 mM PMSF. After 30 minutes on ice, cells were sonicated, and cell debris were removed by centrifugation at 15,000 rpm at 4 °C for 15 minutes. Proteins were quantified using the Bradford Protein Assay (Bio-Rad) according to the manufacturer’s specifications. Thirty μg of total proteins were separated on 10% SDS–PAGE and transferred to PVDF membrane (Amersham Hybond-P). The membranes were blocked at 4 °C overnight with PBS 0.1% Tween 20 containing 5 mg/mL skimmed milk, prior to be incubated with pAkt (Biotechne, diluted 1/2500) pRelA536 (Biotechne, diluted 1/1000), and Tubulin (Thermofisher, diluted 1/1000) antibodies for 2 hours at room temperature, followed by incubation with anti-rabbit or anti-mouse conjugated to horseradish peroxidase at room temperature for 1 hour. The target protein band was visualized using the enhanced chemiluminescence detection system (Amersham ECL Prime Western Blotting Detection Reagent) and luminescent bands were visualized using the VERSADOC imaging system. Band densities were assessed by Image-J software.

B1 peptide = assay: Competitive inhibition of phage B1.12 binding to B1 peptide; design: species or system Epstein-Barr virus (EBV); conditions: B1.12 phage 2 × 10^10 pfu, room temperature 1 hour
Procedure: as §1, with “For competition on B1 as a target, the B1.12 peptide or the unrelated control peptide were incubated at concentrations of 1, 5, 10, 25, 50 and 100 µM with B1 peptide (100 µl of a solution of 1 mg/mL in NaHCO3) at room temperature for 1 hour.” left out

pNFκb (pRelA536) = assay: Western blot pNFκb (pRelA536) in C666.1 cells; format: cell-based; conditions: 100 µM peptide, 24 hours, C666.1, Western blot, n = 4 biological replicates
Procedure: as §3

A20 (TNFAIP3) = assay: RT-qPCR A20 expression in C666.1 cells; format: cell-based; conditions: B1.12-treated versus untreated C666.1, RT-qPCR normalised to GAPDH, n = 3 biological replicates
Source text: Total RNA from C666.1 cells treated or not with B1.12 and control peptides was extracted using TRIzol reagent. cDNA was synthetized using the reverse transcription kit (Invitrogen), and served as a template for detecting A20 gene expression by Real-time quantitative PCR using SYBR Premix Ex Taq (Tli RNase H Plus, Takara) and using CFX96 (Biorad). The housekeeping gene GAPDH was used as an internal control to normalize the expression levels of the gene. The primers used for the amplification of the A20 gene are as follows: forward: 5′-[…]-3′, and reverse: 5′-GGCGAAATTGGAACCTGA TTCCAAACTT-3′. Relative quantification of mRNA expression was performed by the comparative 2−ΔΔct method to calculate the difference between amplifications of A20 and GAPDH. […]

[1] = propidium iodide FACS, 24 h (48 h elsewhere in the source)

CC(C)C[C@H](NC(=O)[C@H](CC(=O)O)NC(=O)[C@H](CC(C)C)NC(=O)[C@@H]1CCCN1C(=O)[C@H](CS)NC(=O)[C@H](C)N)C(=O)N[C@@H](CCCNC(=N)N)C(=O)N[C@@H](CO)C(=O)N1CCC[C@H]1C(=O)N[C@@H](CS)C(=O)NCC(N)=O [B1.12] (H-ACPLDLRSPCG-NH2; N-terminus and C-terminus assumed)
inhibition ratio (HeLa/LMP1 cells): 45% | cell cycle progression versus untreated (in words) (C666.1 cells): inducing G0/G1 cell cycle arrest | cells in G0/G1 phase (C666.1 cells; [1]): 73% | cell cycle phases versus untreated (in words) (HT29 cells): the cell cycle phases still unchanged | cells in G0/G1 phase (HT29 cells; [1]): 78.3% | pAkt expression (pAkt): low in B1.12-treated-C666.1 compared to those in the untreated or treated with control peptide; also recorded: decreased in B1.12-treated-C666.1 compared to those in the untreated or treated with control peptide more markedly for pAkt | effect on binding of phage B1.12 to target B1 (B1 peptide; increasing peptide concentration, triplicate): the inhibition ratio increased gradually | inhibition ratio (B1 peptide; peptide 400 µM, triplicate mean): approximately 43% | pNFκb (pRelA536) expression (pNFκb (pRelA536)): a weak change; also recorded: decreased in B1.12-treated-C666.1 compared to those in the untreated or treated with control peptide | A20 expression level (A20 (TNFAIP3)): the expression of A20 decreased compared to untreated cells; also recorded: the A20 level decreased in the C666.1 cells after B1.12 treatment
